From patent US20240218022A1, “ANTI-VISTA MACROCYCLIC PEPTIDES AND COMPOSITIONS” (BRISTOL-MYERS SQUIBB COMPANY, priority 2022, published 2024) come the findings set out here.

A word on the IC50: it is the concentration at which inhibition is half-maximal.

The assay has as its target T1, mouse VISTA (mVISTA) (Mus musculus, UniProt Q9D659).
T1 construct: expressed in transfected cells; host or cells: Human embryonic kidney 293T cells
T1 sequence (Q9D659 33-308): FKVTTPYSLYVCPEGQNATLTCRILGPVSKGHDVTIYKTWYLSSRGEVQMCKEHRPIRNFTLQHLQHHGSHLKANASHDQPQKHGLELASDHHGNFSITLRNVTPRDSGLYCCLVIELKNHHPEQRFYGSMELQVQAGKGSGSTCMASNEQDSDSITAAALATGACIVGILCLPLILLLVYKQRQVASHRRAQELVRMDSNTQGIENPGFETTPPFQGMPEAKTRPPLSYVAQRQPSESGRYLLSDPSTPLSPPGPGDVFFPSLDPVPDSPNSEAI
Kind of assay: Cell-Based Binding High-Content Assay For mVISTA (HC CBA mVISTA). The gist of the method:
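mVISTA-293T, 4,000 cells/well; cpd ± washout step; biotin-peptide 2 nM final, 30 min RT; SA-Alexa 647 30 min; formaldehyde/Hoechst fix; HCS imaging; 4PL IC50.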

[1] abbreviates: cell-based binding high-content assay, read-out: HC CBA miPrISTA IC50.
[2] abbreviates: 293T cells expressing mouse VISTA, competition with biotinylated peptide (2 nM), read-out: HC CBA mVISTA IC50.

Like-named read-outs stand apart in the source and are kept apart here. Starred links: 1 amine or outer side, 2 acyl side, 3 side chain; linkers in the order of their positions; H or OH if unused. Positions of bridges follow the written chain, without caps; N, C: chain ends. Non-standard residues stand in square brackets, D forms with d. Residues, ends and D or L forms follow the SMILES beside them. ξ: configuration not given here. N(3-phenylpropyl)Gly = O=C(O)CNCCCc1ccccc1; Phe(4-NH2) = Nc1ccc(C[C@H](N)C(=O)O)cc1; Phe(3-Me) = Cc1cccc(C[C@H](N)C(=O)O)c1; γGlu = O=C(O)[C@H](CCC(=O)[*:2])N[*:1]; 2Nal = N[C@@H](Cc1ccc2ccccc2c1)C(=O)O; NMeR = CN[C@@H](CCCNC(=N)N)C(=O)O; Cit = NC(=O)NCCC[C@H](N)C(=O)O; Ile(3ξ) = CCC(C)[C@H](N)C(=O)O; Ahp(2) = CCCCC[C@H](N)C(=O)O; NMeNle = CCCC[C@H](NC)C(=O)O; Tle = CC(C)(C)[C@H](N)C(=O)O; NHexGly = CCCCCCNCC(=O)O; Nle = CCCC[C@H](N)C(=O)O; Orn = NCCC[C@H](N)C(=O)O; Aun = NCCCCCCCCCCC(=O)O; AEEA = NCCOCCOCC(=O)O

Take `CCCCCCN1CC(=O)N[C@@H](Cc2ccc(O)cc2)C(=O)N[C@@H](CCCC)C(=O)N[C@@H](CC(N)=O)C(=O)N[C@@H](CCCNC(=N)N)C(=O)N(C)[C@@H](CC(C)C)C(=O)N[C@@H](CCCCC)C(=O)N2CCC[C@H]2C(=O)N[C@@H](C(C)C)C(=O)N[C@@H](CO)C(=O)N[C@H](C(=O)NCCOCCOCC(=O)N[C@@H](CC(=O)O)C(=O)NCCOCCOCC(=O)NCCCCCCCCCCC(=O)O)CSCC(=O)N[C@@H](Cc2ccccc2)C(=O)N[C@@H](Cc2c[nH]c3ccccc23)C(=O)N[C@@H](CC(=O)O)C1=O` (stereo in doubt) [compound 2314]: the IC50 under setting [1] amounted to 34.6 nM.

On to `CCCCCCN1CC(=O)N[C@@H](Cc2ccc(O)cc2)C(=O)N[C@@H](CCCC)C(=O)N[C@@H](CC(=O)O)C(=O)N[C@@H](CCCN)C(=O)N(C)[C@@H](CCCC)C(=O)N[C@@H](CCCCC)C(=O)N2CCC[C@H]2C(=O)N[C@@H](C(C)(C)C)C(=O)N[C@@H](CC(=O)O)C(=O)N[C@H](C(=O)N[C@@H](CC(N)=O)C(=O)O)CSCC(=O)N[C@@H](Cc2ccccc2)C(=O)N[C@@H](Cc2c[nH]c3ccccc23)C(=O)N[C@@H](CC(=O)O)C1=O` [Example 1397] ({CH2CO}-FWD[NHexGly]Y[Nle]D[Orn][NMeNle][Ahp(2)]P[Tle]DCN-OH; thioether N-14), for which the IC50 (read-out: HC CBA mVISTA IC50) stood at 36 nM. Take `CCCCCCN1CC(=O)N[C@@H](Cc2ccc(O)cc2)C(=O)N[C@@H](CCCC)C(=O)N[C@@H](CC(N)=O)C(=O)N[C@@H](CCCN)C(=O)N(C)[C@@H](CCCC)C(=O)N[C@@H](CCCCC)C(=O)N2CCC[C@H]2C(=O)N[C@@H](C(C)(C)C)C(=O)N[C@@H](CO)C(=O)N[C@H](C(=O)N[C@@H](CC(N)=O)C(=O)O)CSCC(=O)N[C@@H](Cc2ccccc2)C(=O)N[C@@H](Cc2c[nH]c3ccccc23)C(=O)N[C@@H](CC(=O)O)C1=O` [Example 1400] ({CH2CO}-FWD[NHexGly]Y[Nle]N[Orn][NMeNle][Ahp(2)]P[Tle]SCN-OH; thioether N-14): the IC50 (read-out: HC CBA mVISTA IC50) came to 14.1 nM. Regarding `CCCCCCN1CC(=O)N[C@@H](Cc2ccc(O)cc2)C(=O)N[C@@H](CCCC)C(=O)N[C@@H](CC(N)=O)C(=O)N[C@@H](CCCNC(=N)N)C(=O)N(C)[C@@H](CCCNC(=N)N)C(=O)N[C@@H](CCCCC)C(=O)N2CCC[C@H]2C(=O)N[C@@H](C(C)C)C(=O)N[C@@H](CC(=O)O)C(=O)N[C@H](C(=O)NCC(=O)O)CSCC(=O)N[C@@H](Cc2ccc3ccccc3c2)C(=O)N[C@@H](Cc2c[nH]c3ccccc23)C(=O)N[C@@H](CC(=O)O)C1=O` [compound 1258] ({CH2CO}-[2Nal]WD[NHexGly]Y[Nle]NR[NMeR][Ahp(2)]PVDCG-OH; thioether N-14), the IC50 (cell-based binding high-content assay, mVISTA, the 15th table, read-out: HC CBA mVISTA IC50) was 12 nM. As to `CCCCCCN1CC(=O)N[C@@H](Cc2ccc(O)cc2)C(=O)N[C@@H](CCCC)C(=O)N[C@@H](CC(N)=O)C(=O)N[C@@H](CCCNC(=N)N)C(=O)N[C@@H](CC(C)C)C(=O)N[C@@H](CCCCC)C(=O)N2CCC[C@H]2C(=O)N[C@@H](C(C)(C)C)C(=O)N[C@@H](CC(=O)O)C(=O)N[C@H](C(=O)NCCOCCOCC(=O)N[C@@H](CCC(=O)NCCOCCOCC(=O)NCCCCCCCCCCC(=O)O)C(=O)O)CSCC(=O)N[C@@H](Cc2ccccc2)C(=O)N[C@@H](Cc2ccc(O)cc2)C(=O)N[C@@H](CC(=O)O)C1=O` [compound 2233] ({CH2CO}-FYD[NHexGly]Y[Nle]NRL[Ahp(2)]P[Tle]DC[AEEA][γGlu][AEEA][Aun]-OH; thioether N-14), the IC50 (read-out: HC CBA mVISTA IC50) came out at 29.1 nM.

For `CCCCCCN1CC(=O)N[C@@H](Cc2ccc(O)cc2)C(=O)N[C@@H](CC(C)C)C(=O)N[C@@H](CC(N)=O)C(=O)N[C@@H](CCCNC(=N)N)C(=O)N[C@@H](CC(C)C)C(=O)N[C@@H](CCCCC)C(=O)N2CCC[C@H]2C(=O)N[C@@H](C(C)(C)C)C(=O)N[C@@H](C(C)C)C(=O)N[C@H](C(=O)NCCOCCOCC(=O)N[C@@H](CCC(=O)NCCOCCOCC(=O)NCCCCCCCCCCC(=O)O)C(=O)O)CSCC(=O)N[C@@H](Cc2ccccc2)C(=O)N[C@@H](Cc2ccc(O)cc2)C(=O)N[C@@H](CC(=O)O)C1=O` [compound 2240] ({CH2CO}-FYD[NHexGly]YLNRL[Ahp(2)]P[Tle]VC[AEEA][γGlu][AEEA][Aun]-OH; thioether N-14), the IC50 (read-out: HC CBA mVISTA IC50) was 24.4 nM. `CCCCCCN1CC(=O)N[C@@H](Cc2ccc(O)cc2)C(=O)N[C@@H](CCCC)C(=O)N[C@@H](CC(=O)O)C(=O)N[C@@H](CCCN)C(=O)N[C@@H](CC(C)C)C(=O)N[C@@H](CCCCC)C(=O)N2CCC[C@H]2C(=O)N[C@@H](C(C)C)C(=O)N[C@@H](CC(=O)O)C(=O)N[C@H](C(=O)N[C@@H](CC(=O)O)C(N)=O)CSCC(=O)N[C@@H](Cc2ccccc2)C(=O)N[C@@H](Cc2c[nH]c3ccccc23)C(=O)N[C@@H](CC(=O)O)C1=O` [Example 1353] ({CH2CO}-FWD[NHexGly]Y[Nle]D[Orn]L[Ahp(2)]PVDCD-NH2; thioether N-14): the IC50 (read-out: HC CBA mVISTA IC50) came to 11.3 nM. As for `CCCCCCN1CC(=O)N[C@@H](Cc2ccc(O)cc2)C(=O)N[C@@H](CCCC)C(=O)NCC(=O)N[C@@H](CCCNC(=N)N)C(=O)N[C@@H](CC(C)C)C(=O)N[C@@H](CCCCC)C(=O)N2CCC[C@H]2C(=O)N[C@@H](C(C)C)C(=O)N[C@@H](CC(=O)O)C(=O)N[C@H](C(=O)NCC(=O)O)CSCC(=O)N[C@@H](Cc2ccc(N)cc2)C(=O)N[C@@H](Cc2ccc(O)cc2)C(=O)N[C@@H](CC(=O)O)C1=O` [compound 1464] ({CH2CO}-[Phe(4-NH2)]YD[NHexGly]Y[Nle]GRL[Ahp(2)]PVDCG-OH; thioether N-14), under “the 20th table, scaffold drawing 23, read-out: HC CBA mVISTA IC50”, the IC50 was determined as 31.4 nM. `CCCCCCN1CC(=O)N[C@@H](Cc2ccc(O)cc2)C(=O)N[C@@H](C(C)CC)C(=O)NCC(=O)N[C@@H](CCCNC(=N)N)C(=O)N[C@@H](CC(C)C)C(=O)N[C@@H](CCCCC)C(=O)N2CCC[C@H]2C(=O)N[C@@H](C(C)C)C(=O)N[C@@H](CO)C(=O)N[C@H](C(=O)NCC(N)=O)CSCC(=O)N[C@@H](Cc2ccccc2)C(=O)N[C@@H](Cc2ccc(O)cc2)C(=O)N[C@@H](CC(=O)O)C1=O` (some centres unmarked) [Example 1055] ({CH2CO}-FYD[NHexGly]Y[Ile(3ξ)]GRL[Ahp(2)]PVSCG-NH2; thioether N-14): under setting [2], the IC50 amounted to 36.9 nM.

In the case of `CCCCCCN1CC(=O)N[C@@H](Cc2ccc(O)cc2)C(=O)N[C@@H](CCCC)C(=O)N[C@@H](CC(N)=O)C(=O)N[C@@H](CCCNC(N)=O)C(=O)N(C)[C@@H](CCCC)C(=O)N[C@@H](CCCCC)C(=O)N2CCC[C@H]2C(=O)N[C@@H](C(C)C)C(=O)N[C@@H](CC(=O)O)C(=O)N[C@H](C(=O)NCC(=O)O)CSCC(=O)N[C@@H](Cc2ccc3ccccc3c2)C(=O)N[C@@H](Cc2ccc(O)cc2)C(=O)N[C@@H](CC(=O)O)C1=O` [Ex 1301] ({CH2CO}-[2Nal]YD[NHexGly]Y[Nle]N[Cit][NMeNle][Ahp(2)]PVDCG-OH; thioether N-14), the IC50 (cell-based binding high-content assay, mVISTA, the 16th table, read-out: HC CBA mVISTA IC50) turned out to be 5.6 nM. On to `CCCCCCN1CC(=O)N[C@@H](Cc2ccc(O)cc2)C(=O)N[C@@H](CCCC)C(=O)N[C@@H](CC(N)=O)C(=O)N[C@@H](CCCNC(=N)N)C(=O)N(C)[C@@H](CCCC)C(=O)N[C@@H](CCCCC)C(=O)N2CCC[C@H]2C(=O)N[C@@H](C(C)C)C(=O)N[C@@H](CC(=O)O)C(=O)N[C@H](C(=O)NCCOCCOCC(=O)N[C@@H](CCC(=O)NCCOCCOCC(=O)NCCCCCCCCCCC(=O)O)C(=O)O)CSCC(=O)N[C@@H](Cc2ccccc2)C(=O)N[C@@H](Cc2c[nH]c3ccccc23)C(=O)N[C@@H](CC(=O)O)C1=O` [compound 2218] ({CH2CO}-FWD[NHexGly]Y[Nle]NR[NMeNle][Ahp(2)]PVDC[AEEA][γGlu][AEEA][Aun]-OH; thioether N-14), for which the IC50 (read-out: HC CBA mVISTA IC50) was 11.5 nM.

On to `CCCCCCN1CC(=O)N[C@@H](Cc2ccc(O)cc2)C(=O)N[C@@H](CC(C)C)C(=O)N[C@@H](CC(N)=O)C(=O)N[C@@H](CCCNC(=N)N)C(=O)N[C@@H](CC(C)C)C(=O)N[C@@H](CCCCC)C(=O)N2CCC[C@H]2C(=O)N[C@@H](C(C)C)C(=O)N[C@@H](C(C)C)C(=O)N[C@H](C(=O)NCC(=O)O)CSCC(=O)N[C@@H](Cc2ccccc2)C(=O)N[C@@H](Cc2cccc(C)c2)C(=O)N[C@@H](CC(=O)O)C1=O` [compound 1328] ({CH2CO}-F[Phe(3-Me)]D[NHexGly]YLNRL[Ahp(2)]PVVCG-OH; thioether N-14), for which the IC50 (read-out: HC CBA mVISTA IC50) is 2 nM. Consider `CCCCC[C@@H]1NC(=O)[C@H](CCCC)N(C)C(=O)[C@H](CCCN)NC(=O)[C@H](CC(N)=O)NC(=O)[C@H](CC(C)C)NC(=O)[C@H](Cc2ccc(O)cc2)NC(=O)CN(CCCc2ccccc2)C(=O)[C@H](CC(=O)O)NC(=O)[C@H](Cc2ccc(O)cc2)NC(=O)[C@H](Cc2ccccc2)NC(=O)CSC[C@@H](C(=O)NCC(N)=O)NC(=O)[C@H](CO)NC(=O)[C@H](C(C)(C)C)NC(=O)[C@@H]2CCCN2C1=O` [Example 1084] ({CH2CO}-FYD[N(3-phenylpropyl)Gly]YLN[Orn][NMeNle][Ahp(2)]P[Tle]SCG-NH2; thioether N-14), for which, under setting [2], the IC50 worked out at 37.8 nM.

Take `CCCCCCN1CC(=O)N[C@@H](Cc2ccc(O)cc2)C(=O)N[C@@H](CCCC)C(=O)N[C@@H](CC(N)=O)C(=O)N[C@@H](CCCNC(=N)N)C(=O)N(C)[C@@H](CCCC)C(=O)N[C@@H](CCCCC)C(=O)N2CCC[C@H]2C(=O)N[C@@H](C(C)C)C(=O)N[C@@H](CO)C(=O)N[C@H](C(=O)NCCOCCOCC(=O)N[C@@H](CC(=O)O)C(=O)NCCOCCOCC(=O)NCCCCCCCCCCC(=O)O)CSCC(=O)N[C@@H](Cc2ccccc2)C(=O)N[C@@H](Cc2c[nH]c3ccccc23)C(=O)N[C@@H](CC(=O)O)C1=O` (stereo in doubt) [compound 2318]: the IC50 under setting [1] came to 21.3 nM.
